Patent US7384931B2, “Constrained compounds as CGRP-receptor antagonists” (Bristol-Myers Squibb Company, priority 2004, dated 2008)

Tests used:
[1] = target: T1, CGRP receptor (Homo sapiens, UniProt O60894+Q16602); test: CGRP radioligand binding assay ([125I]-CGRP displacement, SK-N-MC homogenate); set-up: endogenous in cells; host or cells: SK-N-MC cells (homogenate/membrane pellet); conditions: displacement of [125I]-CGRP, room temperature 2 h
Summary of the method: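 SK-N-MC cell homogenate (5 μg/well) was incubated 2 h at room temperature with [125I]-CGRP (diluted to 60 pM before addition) in 50 mM Tris-Cl pH 7.5, 5 mM MgCl2, 0.005% Triton X-100 plus protease inhibitors. Bound radioactivity was collected by filtration; 1 μM beta-CGRP defined non-specific binding. IC50 is 50% radioligand displacement.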

[2] = target: T1, CGRP receptor; test: Cyclic AMP functional antagonism assay in SK-N-MC cells; assay type: cell-based; set-up: SK—N-MC cells that endogenously express the human CGRP receptor; endogenous in cells; host or cells: SK-N-MC cells; conditions: inhibition of 0.3 nM CGRP-induced cyclic AMP formation, 15 min pre-incubation, read-out: cAMP Function IC50
Procedure: Cyclic AMP Functional Antagonism Assay. Antagonism of the compounds of invention was determined by measuring the formation of cyclic AMP (adenosine 3′5′-cyclic monophosphate) in SK—N-MC cells that endogenously express the human CGRP receptor. CGRP receptor complex is coupled with Gs protein and CGRP binding to this complex leads to the cyclic AMP production via Gs—dependent activation of an adenylate cyclase (Juaneda C et al., TiPS, 2000; 21:432-438; incorporated by reference herein). Consequently, CGRP receptor antagonists inhibit CGRP—induced cyclic AMP formation in SK—N-MC cells (Doods H et al., Br J Pharmacol, 2000; 129(3):420-423); incorporated by reference herein). For cyclic AMP measurements SK—N-MC cells were incubated with 0.3 nM CGRP alone or in the presence of various concentrations of the compounds of invention for 30 min at room temperature. Compounds of invention were pre-incubated with SK—N-MC cells for 15 min before the addition of CGRP to allow receptor occupancy (Edvinsson et al., Eur J Pharmacol, 2001, 415:39-44; incorporated by reference herein). Cyclic AMP was extracted using the lysis reagent and its concentration was determined by radioimmunoassay using RPA559 cAMP SPA Direct Screening Assay Kit (Amersham Pharmacia Biotech). IC50 values were calculated using Excel fit.

T1 sequence (Q16602 23-461): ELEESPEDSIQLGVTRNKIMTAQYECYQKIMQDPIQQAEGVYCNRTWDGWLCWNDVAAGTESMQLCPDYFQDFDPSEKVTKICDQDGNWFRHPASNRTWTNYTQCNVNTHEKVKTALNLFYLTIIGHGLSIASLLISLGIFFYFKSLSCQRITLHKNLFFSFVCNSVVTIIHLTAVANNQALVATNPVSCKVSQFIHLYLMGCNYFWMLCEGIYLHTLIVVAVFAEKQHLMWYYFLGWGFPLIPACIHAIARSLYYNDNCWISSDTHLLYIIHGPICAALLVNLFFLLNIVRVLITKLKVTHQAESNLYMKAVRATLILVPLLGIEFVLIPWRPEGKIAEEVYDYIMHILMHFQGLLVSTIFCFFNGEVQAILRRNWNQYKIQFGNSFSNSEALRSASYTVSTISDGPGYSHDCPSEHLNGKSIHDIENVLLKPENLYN
T1 sequence (O60894 27-148): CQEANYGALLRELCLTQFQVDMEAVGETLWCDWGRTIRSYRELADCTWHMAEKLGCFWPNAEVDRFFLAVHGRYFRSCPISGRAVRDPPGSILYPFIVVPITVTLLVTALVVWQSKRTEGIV

| IC50 [1] | IC50 [2] | SMILES |
| --- | --- | --- |
| 0.1 to 10 nM | 0.1 to 10 nM | O=C(C[C@@H]1Cc2cc(Cl)c3[nH]ncc3c2CN(Cc2ccncc2)C1=O)N1CCC(N2Cc3cccc(F)c3NC2=O)CC1 [Example 50, (S)-4-Chloro-7-(2-(4-(8-fluoro-2-oxo-1,2-dihydroquinazolin-3(4H)-yl)piperidin-1-yl)-2-oxoethyl)-9-(pyridin-4-ylmethyl)-6,7,9,10-tetrahydroazepino[3,4-e]indazol-8(3H)-one] |
| 0.1 to 10 nM | 0.1 to 10 nM | O=C(C[C@@H]1Cc2cc(Cl)c3[nH]ncc3c2CN(Cc2ccncc2)C1=O)N1CCC(N2Cc3ccccc3NC2=O)CC1 [Example 49, (S)-4-Chloro-7-(2-oxo-2-(4-(2-oxo-1,2-dihydroquinazolin-3(4H)-yl)piperidin-1-yl)ethyl)-9-(pyridin-4-ylmethyl)-6,7,9,10-tetrahydroazepino[3,4-e]indazol-8(3H)-one] |
| 0.1 to 10 nM | 0.1 to 10 nM | O=C(N[C@@H]1Cc2cc(Cl)c3[nH]ncc3c2CN(Cc2ccccc2)C1=O)N1CCC(N2Cc3ccccc3NC2=O)CC1 [Example 12, 4-(2-Oxo-1,4-dihydro-2H-quinazolin-3-yl)-piperidine-1-carboxylic acid (9-benzyl-4-chloro-8-oxo-3,6,7,8,9,10-hexahydro-2,3,9-triaza-(R)-cyclohepta[e]inden-7-yl)-amide] |
| 0.1 to 10 nM | 0.1 to 10 nM | CC(C)(C)CN1Cc2c(ccc3[nH]ncc23)CC(NC(=O)N2CCC(N3Cc4ccccc4NC3=O)CC2)C1=O (stereo not shown) [Example 22, 4-(2-Oxo-1,4-dihydro-2H-quinazolin-3-yl)-piperidine-1-carboxylic acid [9-(2,2-dimethyl-propyl)-8-oxo-3,6,7,8,9,10-hexahydro-2,3,9-triaza-cyclohepta[e]inden-7-yl]-amide] |
| 0.1 to 10 nM | 0.1 to 10 nM | CC(C)(C)CN1Cc2c(cc(Cl)c3[nH]ncc23)C[C@@H](CC(=O)N2CCC(n3cc(-c4ccccc4)[nH]c3=O)CC2)C1=O [Example 44, (S)-4-Chloro-9-neopentyl-7-(2-oxo-2-(4-(2-oxo-4-phenyl-2,3-dihydroimidazol-1-yl)piperidin-1-yl)ethyl)-6,7,9,10-tetrahydroazepino[3,4-e]indazol-8(3H)-one] |
| 0.1 to 10 nM | 0.1 to 10 nM | CC(C)(C)CN1Cc2c(cc(Cl)c3[nH]ncc23)C[C@@H](NC(=O)N2CCC(N3Cc4ccccc4NC3=O)CC2)C1=O [Example 20, 4-(2-Oxo-1,4-dihydro-2H-quinazolin-3-yl)-piperidine-1-carboxylic acid [4-chloro-9-(2,2-dimethyl-propyl)-8-oxo-3,6,7,8,9,10-hexahydro-2,3,9-triaza-(R)-cyclohepta[e]inden-7-yl]-amide] |
| 0.1 to 10 nM | 0.1 to 10 nM | CC(C)(C)CN1Cc2c(cc(Cl)c3[nH]ncc23)C[C@@H](CC(=O)N2CCC(N3Cc4cccc(F)c4NC3=O)CC2)C1=O [Example 40, (S)-4-Chloro-7-(2-(4-(8-fluoro-2-oxo-1,2-dihydroquinazolin-3(4H)-yl)piperidin-1-yl)-2-oxoethyl)-9-neopentyl-6,7,9,10-tetrahydroazepino[3,4-e]indazol-8(3H)-one] |
| 10 to 100 nM | 10 to 100 nM | C[C@@H](c1ccccc1)N1Cc2c(ccc3[nH]ncc23)C[C@@H](NC(=O)N2CCC(N3Cc4ccccc4NC3=O)CC2)C1=O [Example 10, 4-(2-Oxo-1,4-dihydro-2H-quinazolin-3-yl)-piperidine-1-carboxylic acid [8-oxo-9-(1-(S)-phenyl-ethyl)-3,6,7,8,9,10-hexahydro-2,3,9-triaza-(R)-cyclohepta[e]inden-7-yl]-amide] |
| 0.1 to 10 nM | 0.1 to 10 nM | O=C(C[C@@H]1Cc2cc(Cl)c3[nH]ncc3c2CN(Cc2ccncc2)C1=O)N1CCC(c2cc3ccccc3[nH]c2=O)CC1 [Example 52, (S)-4-Chloro-7-(2-oxo-2-(4-(2-oxo-1,2-dihydroquinolin-3-yl)piperidin-1-yl)ethyl)-9-(pyridin-4-ylmethyl)-6,7,9,10-tetrahydroazepino[3,4-e]indazol-8(3H)-one] |
| 10 to 100 nM | 10 to 100 nM | O=C(N[C@@H]1Cc2ccc3[nH]ncc3c2CN(Cc2ccccc2)C1=O)N1CCC(N2Cc3ccccc3NC2=O)CC1 [Example 1, 4-(2-Oxo-1,4-dihydro-2H-quinazolin-3-yl)-piperidine-1-carboxylic acid (9-benzyl-8-oxo-3,6,7,8,9,10-hexahydro-2,3,9-triaza-(R)-cyclohepta[e]inden-7-yl)-amide] |
| 0.1 to 10 nM | 0.1 to 10 nM | O=C(C[C@@H]1Cc2cc(Cl)c3[nH]ncc3c2CN(Cc2ccncc2)C1=O)N1CCC(n2cc(-c3ccccc3)[nH]c2=O)CC1 [Example 53, (S)-4-Chloro-7-(2-oxo-2-(4-(2-oxo-4-phenyl-2,3-dihydroimidazol-1-yl)piperidin-1-yl)ethyl)-9-(pyridin-4-ylmethyl)-6,7,9,10-tetrahydroazepino[3,4-e]indazol-8(3H)-one] |
